Each compound was assayed against T1, human MGL from HeLa cells (Homo sapiens, UniProt Q99685) (assay: In vitro MGL activity assay: [glycerol-1,3-3H]-oleyl glycerol cleavage by MGL from HeLa cells). Details: 300 nM [Glycerol-1,3-3H]-oleyl glycerol, one hour.
T1 construct: combining endogenously expressed MGL from HeLa cells with test compounds; endogenous in cells; host or cells: HeLa cells / cell homogenates
T1 sequence (Q99685 1-303): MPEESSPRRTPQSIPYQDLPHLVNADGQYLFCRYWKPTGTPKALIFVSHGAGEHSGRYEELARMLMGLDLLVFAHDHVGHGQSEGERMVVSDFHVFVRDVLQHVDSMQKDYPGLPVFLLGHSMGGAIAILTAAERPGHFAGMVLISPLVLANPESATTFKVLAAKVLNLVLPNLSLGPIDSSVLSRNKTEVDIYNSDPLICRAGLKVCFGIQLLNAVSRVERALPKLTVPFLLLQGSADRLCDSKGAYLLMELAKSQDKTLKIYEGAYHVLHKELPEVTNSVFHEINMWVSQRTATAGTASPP
Assay type: biochemical
Description: MGL is the predominant hydrolase in HeLa cells/cell homogenates.
`Cc1ccn2c(C(=O)N3CCc4c(nn(C)c4-c4cc(F)c(F)c(F)c4)[C@@H]3C)c(C)nc2c1` [Example 404, (2,7-Dimethylimidazo[1,2-a]pyridin-3-yl)-[(7S)-2,7-dimethyl-3-(3,4,5-trifluorophenyl)-5,7-dihydro-4H-pyrazolo[3,4-c]pyridin-6-yl]methanone] gave an IC50 of 50.5 nM.
Work on `Cc1ccc2nc(C)c(C(=O)N3CCc4c(nn(C)c4-c4cc(F)c(F)c(F)c4)[C@@H]3C)n2c1` [Example 405, (2,6-Dimethylimidazo[1,2-a]pyridin-3-yl)-[(7S)-2,7-dimethyl-3-(3,4,5-trifluorophenyl)-5,7-dihydro-4H-pyrazolo[3,4-c]pyridin-6-yl]methanone] yielded an IC50 of 280 nM.
For `COc1cc(Cl)cc(-c2c3c(nn2C)[C@H](C)N(C(=O)c2c(C)nc4ccc(F)cn24)CC3)c1` [Example 406, [(7S)-3-(3-Chloro-5-methoxy-phenyl)-2,7-dimethyl-5,7-dihydro-4H-pyrazolo[3,4-c]pyridin-6-yl]-(6-fluoro-2-methyl-imidazo[1,2-a]pyridin-3-yl)methanone], the IC50 was 22.6 nM.
`Cc1nc2ccc(F)cn2c1C(=O)N1CCc2c(nn(C)c2-c2cc(F)c(F)c(F)c2)[C@@H]1C` [Example 407, [(7S)-2,7-Dimethyl-3-(3,4,5-trifluorophenyl)-5,7-dihydro-4H-pyrazolo[3,4-c]pyridin-6-yl]-(6-fluoro-2-methyl-imidazo[1,2-a]pyridin-3-yl)methanone] was tested, and the IC50 was 21.3 nM.
`Cc1nc2c(C)cc(F)cn2c1C(=O)N1CCc2c(nn(C)c2-c2cc(F)c(F)c(F)c2)[C@@H]1C` [Example 408, [(7S)-2,7-Dimethyl-3-(3,4,5-trifluorophenyl)-5,7-dihydro-4H-pyrazolo[3,4-c]pyridin-6-yl]-(6-fluoro-2,8-dimethyl-imidazo[1,2-a]pyridin-3-yl)methanone] was tested, and the IC50 was 27 nM.
`Cc1cc2nc(C)c(C(=O)N3CCc4c(nn(C)c4-c4cc(F)c(F)c(F)c4)[C@@H]3C)n2cc1F` [Example 409, [(7S)-2,7-Dimethyl-3-(3,4,5-trifluorophenyl)-5,7-dihydro-4H-pyrazolo[3,4-c]pyridin-6-yl]-(6-fluoro-2,7-dimethyl-imidazo[1,2-a]pyridin-3-yl)methanone] showed an IC50 of 76.6 nM.
Compound `Cc1nc2c(F)cc(F)cn2c1C(=O)N1CCc2c(nn(C)c2-c2cc(F)c(F)c(F)c2)[C@@H]1C` [Example 410, (6,8-Difluoro-2-methyl-imidazo[1,2-a]pyridin-3-yl)-[(7S)-2,7-dimethyl-3-(3,4,5-trifluorophenyl)-5,7-dihydro-4H-pyrazolo[3,4-c]pyridin-6-yl]methanone] has an IC50 of 173 nM.
Compound `C[C@H]1c2nn(C)c(-c3cc(F)c(F)c(F)c3)c2CCN1C(=O)c1c(C(F)F)nc2ccccn12` [Example 412, [2-(Difluoromethyl)imidazo[1,2-a]pyridin-3-yl]-[(7S)-2,7-dimethyl-3-(3,4,5-trifluorophenyl)-5,7-dihydro-4H-pyrazolo[3,4-c]pyridin-6-yl]methanone] has an IC50 of 12.9 nM.
For `C[C@H]1c2nn(C)c(-c3cc(F)c(F)c(F)c3)c2CCN1C(=O)c1c(C(F)(F)F)nc2ccccn12` [Example 413, [(7S)-2,7-Dimethyl-3-(3,4,5-trifluorophenyl)-5,7-dihydro-4H-pyrazolo[3,4-c]pyridin-6-yl]-[2-(trifluoromethyl)imidazo[1,2-a]pyridin-3-yl]methanone], the IC50 was 23 nM.
`Cc1cccc2nc(C(F)(F)F)c(C(=O)N3CCc4c(nn(C)c4-c4cc(F)c(F)c(F)c4)[C@@H]3C)n12` [Example 414, [(7S)-2,7-Dimethyl-3-(3,4,5-trifluorophenyl)-5,7-dihydro-4H-pyrazolo[3,4-c]pyridin-6-yl]-[5-methyl-2-(trifluoromethyl)imidazo[1,2-a]pyridin-3-yl]methanone] showed an IC50 of 20.4 nM.
With `C[C@H]1c2nn(C)c(-c3cc(F)c(F)c(F)c3)c2CCN1C(=O)c1nccn2cccc12` [Example 415, [(7S)-2,7-Dimethyl-3-(3,4,5-trifluorophenyl)-5,7-dihydro-4H-pyrazolo[3,4-c]pyridin-6-yl]-pyrrolo[1,2-a] pyrazin-1-yl-methanone] the IC50 was 13.3 nM.

— patent publication US11820766B2, “Monoacylglycerol lipase modulators” (Janssen Pharmaceutica NV, priority 2018, dated 2023)
